Test results published in article PMC7501296, “Rapid and direct control of target protein levels with VHL-recruiting dTAG molecules” (Nature Communications, 2020).
Several values for one entry are separate records, joined by “and”; a condition that tells them apart may be missing. Equal entries are not always repeated.

How the values were obtained:
Format in all cases: cell-based
[1] = tested on: PATU-8902 LACZ-FKBP12^F36V clone; assay: Antiproliferation, PATU-8902 LACZ-FKBP12F36V clone, 2D-monolayer (CellTiter-Glo)
Method: (§1) Cell viability was assayed in 2D-adherent or ultra-low adherent 3D-spheroids using CellTiter-Glo (Promega)[6],[15]. Luminescence was measured on an Envision 2104 plate reader (PerkinElmer) and Fluostar Omega Reader (BMG Labtech) and data was analyzed using GraphPad PRISM v8. Synergy assessments were performed using CellTiter-Glo (Promega) with the following modifications to the protocol described in the ref. [34]. In brief, EWS502 cells were plated at 1000 cells per well in 50 µL of appropriate media in 384-well white culture plates (Corning) allowed to adhere overnight, and 100 nL of compounds were added using a Janus Workstation pin tool (PerkinElmer) for 72 h. Cell viability was measured by addition of 10 µL of CellTiter-glo (Promega), followed by incubation for 15 minutes at room temperature. Luminescence was measured on an Envision 2104 plate reader (PerkinElmer) and data was analyzed using GraphPad PRISM v8.

FKBP12^WT-Nluc = target: T1, FKBP12^WT-Nluc (Homo sapiens, UniProt P62942); assay: FKBP12WT-Nluc dual luciferase assay (293FT); conditions: 293FT FKBP12WT-Nluc, 24 h
T1 construct: expressed in transfected cells; host or cells: 293FT
Method: (§2) Dual luciferase assays were performed using 293FT FKBP12^WT-Nluc and FKBP12^F36V-Nluc cells. In brief, cells were plated at 2000 cells per well in 20 µL of appropriate media in 384-well white culture plates (Corning), allowed to adhere overnight, and 100 nL of compounds were added using a Janus Workstation pin tool (PerkinElmer) for 24 h at 37 °C. To evaluate Fluc signal, plates were brought to room temperature, 20 µL of Dual-Glo Reagent (Promega) was added for 10 min and luminescence was measured on an Envision 2104 plate reader (PerkinElmer). Subsequently, 20 µL of Dual-Glo Stop & Glo Reagent (Promega) was added for 10 min and luminescence was again measured to capture Nluc signal. DMSO-normalized ratios of Nluc/Fluc signal was analyzed and plotted using GraphPad PRISM v8[6].

[2] = tested on: PATU-8902 LACZ-FKBP12^F36V clone; assay: Antiproliferation, PATU-8902 LACZ-FKBP12F36V clone, 3D-spheroid (CellTiter-Glo)
Method: as §1

[3] = tested on: PATU-8902 FKBP12^F36V-KRAS^G12V; KRAS^-/- clone; assay: Antiproliferation, PATU-8902 FKBP12F36V-KRASG12V; KRAS-/- clone, 2D-monolayer (CellTiter-Glo)
Method: as §1

FKBP12^F36V-Nluc = target: T2, FKBP12^F36V-Nluc (Homo sapiens, UniProt P62942, F37V); assay: FKBP12F36V-Nluc dual luciferase assay (293FT); conditions: 293FT FKBP12F36V-Nluc, 24 h
T2 construct: expressed in transfected cells; host or cells: 293FT
Method: as §2

[4] = tested on: PATU-8902 FKBP12^F36V-KRAS^G12V; KRAS^-/- clone; assay: Antiproliferation, PATU-8902 FKBP12F36V-KRASG12V; KRAS-/- clone, 3D-spheroid (CellTiter-Glo); conditions: FKBP12F36V-KRASG12V, KRAS-/-, 3D-spheroid, replicate values
Method: as §1

[5] = log10[compound] (M) -5.69897, replicate values
[6] = log10[compound] (M) -6.19897, replicate values
[7] = log10[compound] (M) -6.69897, replicate values
[8] = log10[compound] (M) -7.19897, replicate values
[9] = log10[compound] (M) -7.69897, replicate values
[10] = log10[compound] (M) -8.19897, replicate values
[11] = log10[compound] (M) -8.69897, replicate values
[12] = log10[compound] (M) -9.19897, replicate values
[13] = log10[compound] (M) -9.69897, replicate values
[14] = log10[compound] (M) -10.199, replicate values
[15] = log10[compound] (M) -5.30103, single replicates
[16] = log10[compound] (M) -5.80103, single replicates
[17] = log10[compound] (M) -6.30103, single replicates
[18] = log10[compound] (M) -6.80103, single replicates
[19] = log10[compound] (M) -7.30103, single replicates
[20] = log10[compound] (M) -7.80103, single replicates
[21] = log10[compound] (M) -8.30103, single replicates
[22] = log10[compound] (M) -8.80103, single replicates
[23] = log10[compound] (M) -9.30103, single replicates
[24] = log10[compound] (M) -9.80103, single replicates

T2 sequence (P62942 2-108 F37V limits assumed): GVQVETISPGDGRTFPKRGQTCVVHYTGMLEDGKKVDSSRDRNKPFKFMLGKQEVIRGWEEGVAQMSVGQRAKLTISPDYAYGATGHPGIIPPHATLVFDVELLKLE
T1 sequence (P62942 2-108 limits assumed): as the sequence (P62942 2-108 F37V limits assumed) above, with V36F counted along it

With CC[C@H](C(=O)N1CCCC[C@H]1C(=O)O[C@H](CCc1ccc(OC)c(OC)c1)c1ccccc1OCC(=O)NCCCCCCCCNc1ccc2c(c1)C(=O)N(C1CCCNC1=O)C2=O)c1cc(OC)c(OC)c(OC)c1 (stereo partly drawn) [dTAG-47-NEG] the DMSO-normalized antiproliferation [1, 5] was 66.1984 and 57.9546 and 80.6556 and 62.9228, the DMSO-normalized antiproliferation [1, 6] was 65.6828 and 85.4625 and 78.6518 and 76.5663 and the DMSO-normalized antiproliferation [1, 7] was 102.61 and 78.6871 and 110.55 and 102.23. The DMSO-normalized antiproliferation [1, 8] was 104.837 and 92.9898 and 109.382 and 132.676, the DMSO-normalized antiproliferation [1, 9] was 141.282 and 157.373 and 114.442 and 100.315 and the DMSO-normalized antiproliferation [1, 10] was 95.0388 and 126.489 and 147.158 and 156.144. For the same compound, the DMSO-normalized antiproliferation [1, 11] was 96.771 and 104.289 and 112.53 and 88.7912, the DMSO-normalized antiproliferation [1, 12] was 117.441 and 113.828 and 97.736 and 88.8651 and the DMSO-normalized antiproliferation [1, 13] was 104.694 and 108.624 and 153.334 and 121.648. For the same compound, the DMSO-normalized antiproliferation [1, 14] was 108.17 and 124.096 and 109.419 and 107.694, the “DMSO-normalized ratio of Nluc/Fluc signal” value (FKBP12^WT-Nluc; [15]) was 112.983 and 133.743 and 109.836 and 118.552 and the “DMSO-normalized ratio of Nluc/Fluc signal” value (FKBP12^WT-Nluc; [16]) was 88.6495 and 108.291 and 97.1172 and 97.9891. For the same compound, the “DMSO-normalized ratio of Nluc/Fluc signal” value (FKBP12^WT-Nluc; [17]) was 84.7288 and 98.5773 and 69.8656 and 85.4355, the “DMSO-normalized ratio of Nluc/Fluc signal” value (FKBP12^WT-Nluc; [18]) was 111.882 and 117.981 and 82.1602 and 97.6002 and the “DMSO-normalized ratio of Nluc/Fluc signal” value (FKBP12^WT-Nluc; [19]) was 80.9372 and 116.345 and 96.4274 and 100.006. The “DMSO-normalized ratio of Nluc/Fluc signal” value (FKBP12^WT-Nluc; [20]) was 91.8268 and 107.899 and 89.5705 and 101.339, the “DMSO-normalized ratio of Nluc/Fluc signal” value (FKBP12^WT-Nluc; [21]) was 96.8786 and 106.696 and 109.119 and 135.476 and the “DMSO-normalized ratio of Nluc/Fluc signal” value (FKBP12^WT-Nluc; [22]) was 100.791 and 113.508 and 74.3676 and 105.961. For the same compound, the “DMSO-normalized ratio of Nluc/Fluc signal” value (FKBP12^WT-Nluc; [23]) was 140.604 and 140.668 and 98.5907 and 115.954, the “DMSO-normalized ratio of Nluc/Fluc signal” value (FKBP12^WT-Nluc; [24]) was 87.4488 and 119.502 and 82.5871 and 99.1801 and the DMSO-normalized antiproliferation [2, 5] was 97.4751 and 103.304 and 87.3281 and 98.4167. For the same compound, the DMSO-normalized antiproliferation [2, 6] was 115.352 and 92.3949 and 111.46 and 98.7799, the DMSO-normalized antiproliferation [2, 7] was 115.675 and 135.633 and 120.527 and 101.762 and the DMSO-normalized antiproliferation [2, 8] was 132.781 and 104.479 and 141.691 and 94.0763. The DMSO-normalized antiproliferation [2, 9] was 113.77 and 136.938 and 126.087 and 111.72, the DMSO-normalized antiproliferation [2, 10] was 141.265 and 116.402 and 127.835 and 120.491 and the DMSO-normalized antiproliferation [2, 11] was 117.15 and 123.8 and 115.155 and 128.638. The DMSO-normalized antiproliferation [2, 12] was 109.537 and 110.734 and 119.818 and 124.491, the DMSO-normalized antiproliferation [2, 13] was 101.506 and 115.774 and 112.487 and 105.932 and the DMSO-normalized antiproliferation [2, 14] was 91.3412 and 111.541 and 123.365 and 101.901. The DMSO-normalized antiproliferation [3, 5] was 74.7022 and 73.4799 and 58.8574 and 61.1381, the DMSO-normalized antiproliferation [3, 6] was 87.1466 and 90.577 and 94.4269 and 106.738 and the DMSO-normalized antiproliferation [3, 7] was 79.5247 and 86.4598 and 105.965 and 87.3723. For the same compound, the DMSO-normalized antiproliferation [3, 8] was 125.17 and 98.7432 and 116.205 and 122.113, the DMSO-normalized antiproliferation [3, 9] was 90.1708 and 148.45 and 111.91 and 91.8745 and the DMSO-normalized antiproliferation [3, 10] was 119.425 and 116.853 and 127.987 and 145.045. The DMSO-normalized antiproliferation [3, 11] was 87.2626 and 88.668 and 110.555 and 114.959, the DMSO-normalized antiproliferation [3, 12] was 135.954 and 152.721 and 117.778 and 94.3712 and the DMSO-normalized antiproliferation [3, 13] was 100.893 and 117.34 and 101.502 and 86.7015. The DMSO-normalized antiproliferation [3, 14] was 99.6176 and 90.8045 and 95.2889 and 85.7881, the “DMSO-normalized ratio of Nluc/Fluc signal” value (FKBP12^F36V-Nluc; [15]) was 107.204 and 133.65 and 125.111 and 106.713 and the “DMSO-normalized ratio of Nluc/Fluc signal” value (FKBP12^F36V-Nluc; [16]) was 105.202 and 100.221 and 87.7709 and 98.1806. The “DMSO-normalized ratio of Nluc/Fluc signal” value (FKBP12^F36V-Nluc; [17]) was 114.516 and 112.689 and 63.1557 and 96.6176, the “DMSO-normalized ratio of Nluc/Fluc signal” value (FKBP12^F36V-Nluc; [18]) was 115.914 and 94.4993 and 79.2868 and 83.2258 and the “DMSO-normalized ratio of Nluc/Fluc signal” value (FKBP12^F36V-Nluc; [19]) was 95.8358 and 90.9039 and 76.6637 and 114.52. The “DMSO-normalized ratio of Nluc/Fluc signal” value (FKBP12^F36V-Nluc; [20]) was 93.9184 and 139.979 and 82.2221 and 91.2143, the “DMSO-normalized ratio of Nluc/Fluc signal” value (FKBP12^F36V-Nluc; [21]) was 91.746 and 110.613 and 89.992 and 115.75 and the “DMSO-normalized ratio of Nluc/Fluc signal” value (FKBP12^F36V-Nluc; [22]) was 108.43 and 84.8167 and 129.223 and 114.161. The “DMSO-normalized ratio of Nluc/Fluc signal” value (FKBP12^F36V-Nluc; [23]) was 128.159 and 120.38 and 100.065 and 103.942, the “DMSO-normalized ratio of Nluc/Fluc signal” value (FKBP12^F36V-Nluc; [24]) was 95.5174 and 90.4935 and 78.1755 and 112.193 and the DMSO-normalized antiproliferation ([4]; log10[compound] (M) -5.69897) was 82.482 and 87.6886 and 103.208 and 99.4884. For the same compound, the DMSO-normalized antiproliferation ([4]; log10[compound] (M) -6.19897) was 113.805 and 93.9254 and 98.397 and 96.9436, the DMSO-normalized antiproliferation ([4]; log10[compound] (M) -6.69897) was 123.227 and 117.041 and 133.19 and 118.656 and the DMSO-normalized antiproliferation ([4]; log10[compound] (M) -7.19897) was 81.3571 and 110.96 and 121.028 and 111.088. The DMSO-normalized antiproliferation ([4]; log10[compound] (M) -7.69897) was 122.42 and 111.862 and 100.29 and 122.927, the DMSO-normalized antiproliferation ([4]; log10[compound] (M) -8.19897) was 142.5 and 118.093 and 120.226 and 127.732 and the DMSO-normalized antiproliferation ([4]; log10[compound] (M) -8.69897) was 121.028 and 116.139 and 119.196 and 128.785. The DMSO-normalized antiproliferation ([4]; log10[compound] (M) -9.19897) was 130.238 and 109.673 and 113.755 and 125.733, the DMSO-normalized antiproliferation ([4]; log10[compound] (M) -9.69897) was 131.246 and 139.231 and 145.63 and 98.1297 and the DMSO-normalized antiproliferation ([4]; log10[compound] (M) -10.199) was 85.3442 and 82.6434 and 122.826 and 96.2419.
